The results in this text go back to ChEMBL document CHEMBL1125236 (J Med Chem, 1991).

As a reminder, the IC50 is the point on the concentration scale where inhibition reaches its midpoint. Read a high IC50 as a need for much substance. As usually defined, the T/C is the result in the treated group divided by that in the control group, in per cent.

The subject of experiment [1] is L1210. The experiment is described as follows: In vivo activity against L1210 leukemia cells in mice at a dose of 16 mg/kg and expressed as Survival range in days. The format is functional, Mus musculus.
The subject of experiment [2] is L1210. As to the kind of experiment: In vivo activity against L1210 leukemia cells in mice at a dose of 16 mg/kg and expressed as Survival median in days. The format is functional, Mus musculus.
Experiment [3] concerns L1210. As to the kind of experiment: In vivo activity against L1210 leukemia cells in mice at a dose of 32 mg/kg and expressed as Survival median in days. It is filed as functional, Mus musculus.
Experiment [4] relates to L1210. The experiment is described as follows: Compound was evaluated for the growth inhibition of L1210 cells. It is filed as functional, cell-based. Particulars: Mus musculus.
Experiment [5] concerns L1210. The experiment is described as follows: Antitumor activity (T/C) evaluated against L1210 leukemia from the median survival time of treated mice (T) over that of control mice (C) at a dose of 8 mg/kg. The format is functional, Mus musculus.
In experiment [6] the test system is L1210. The experiment is described as follows: In vivo activity against L1210 leukemia cells in mice at a dose of 8 mg/kg and expressed as Survival median in days. The format is functional, Mus musculus.
For experiment [7], the system named is L1210. The experiment is described as follows: In vivo activity against L1210 leukemia cells in mice at a dose of 32 mg/kg and expressed as Survival range in days. The format is functional, Mus musculus.
The subject of experiment [8] is L1210. As to the kind of experiment: In vivo activity against L1210 leukemia cells in mice at a dose of 8 mg/kg and expressed as Survival range in days. The format is functional, Mus musculus.
For experiment [9], the system named is L1210. As to the kind of experiment: Antitumor activity (T/C) evaluated against L1210 leukemia from the median survival time of treated mice (T) over that of control mice (C) at a dose of 16 mg/kg. The format is functional, Mus musculus.
The test system of experiment [10] is L1210. As to the kind of experiment: Antitumor activity (T/C) evaluated against L1210 leukemia from the median survival time of treated mice (T) over that of control mice (C) at a dose of 32 mg/kg. The format is functional, Mus musculus.
In experiment [11] the test system is L1210. The experiment is described as follows: In vivo activity against L1210 leukemia cells in mice at a dose of 16 mg/kg and expressed as percent weight change after 7 days. It is filed as functional, Mus musculus.
Experiment [12] relates to L1210. As to the kind of experiment: In vivo activity against L1210 leukemia cells in mice at a dose of 32 mg/kg and expressed as percent weight change after 7 days. It is filed as functional, Mus musculus.
In experiment [13] the test system is L1210. The experiment is described as follows: In vivo activity against L1210 leukemia cells in mice at a dose of 8 mg/kg and expressed as percent weight change after 7 days. It is filed as functional, Mus musculus.
In another experiment the target is T1, Dihydrofolate reductase (Homo sapiens, UniProt P00374).
T1 sequence (P00374 whole entry): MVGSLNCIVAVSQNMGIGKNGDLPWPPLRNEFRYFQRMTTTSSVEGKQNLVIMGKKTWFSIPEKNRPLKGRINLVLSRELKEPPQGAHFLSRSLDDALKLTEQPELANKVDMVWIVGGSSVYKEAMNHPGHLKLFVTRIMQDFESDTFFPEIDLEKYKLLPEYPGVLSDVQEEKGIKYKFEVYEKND

A short description of experiment [14]: Compound was evaluated for growth inhibition of WI-L2 cells. The format is functional, cell-based. The conditions noted are these: Homo sapiens, WIL2.

Description for Dihydrofolate reductase: Inhibition of dihydrofolate reductase (DHFR) from human cells (WI-L2/M4).

For `CN(Cc1cnc2nc(N)nc(N)c2n1)c1ccc(C(=O)NC(CCC(=O)Nc2cccc(B(O)O)c2)C(=O)O)cc1` (stereo not given), the Survival range in the experiment with L1210 [1] was 11 days; in the experiment with L1210 [7], 12 days; in the experiment with L1210 [8], 9 days. The Survival median with L1210 [2] came out at 12 days; in the experiment with L1210 [3], 14 days; in the experiment on L1210 [6], 11 days. The IC50 amounted to 0.0007 µM with L1210 [4] and 0.03 µM on Dihydrofolate reductase. Moreover, the T/C in the experiment with L1210 [5] was 138%; with L1210 [9], 150%; with L1210 [10], 175%. The weight change % is listed as 4% in the experiment on L1210 [11], 5% with L1210 [12] and 8% in the experiment on L1210 [13].
For the molecule `Nc1nc(N)c2nc(CNc3ccc(C(=O)NC(CCC(=O)Nc4cccc(C(=O)O)c4)C(=O)O)cc3)cnc2n1` (stereo not given), the 50% inhibitory concentration (IC50) in the experiment on L1210 [4] came out at 0.025 µM; in [14], 0.0061 µM; against Dihydrofolate reductase, 0.032 µM.
On the same counts, the results for `CN(Cc1cnc2nc(N)nc(N)c2n1)c1ccc(C(=O)NC(CCC(=O)Nc2cccc(C(=O)O)c2)C(=O)O)cc1` (stereo not given) are 0.0016 µM, 0.0022 µM and 0.035 µM.
